Experiments:
BLK = target: T1, BLK (Homo sapiens, UniProt P51451); test: Off-chip Mobility Shift Assay, kinase inhibition; assay type: biochemical; conditions: at 10 nM; recombinant BLK
T1 construct: purchased Carna Biosciences, Inc

PDGFRα = target: T2, PDGFRα (Homo sapiens, UniProt P16234); test: Off-chip Mobility Shift Assay, kinase inhibition; assay type: biochemical; conditions: at 10 nM; recombinant PDGFRα; read-out: inhibition
T2 construct: purchased Carna Biosciences, Inc

Mino = test: Cell inhibition assay (PrestoBlue, 48 h); assay type: cell-based; conditions: Homo sapiens, Mino cells, read-out: IC50, inhibition of growth
FGR = target: T3, FGR (Homo sapiens, UniProt P09769); test: Off-chip Mobility Shift Assay, kinase inhibition; assay type: biochemical; conditions: at 10 nM; recombinant FGR; read-out: inhibition
T3 construct: purchased Carna Biosciences, Inc
T3 sequence (P09769 whole entry): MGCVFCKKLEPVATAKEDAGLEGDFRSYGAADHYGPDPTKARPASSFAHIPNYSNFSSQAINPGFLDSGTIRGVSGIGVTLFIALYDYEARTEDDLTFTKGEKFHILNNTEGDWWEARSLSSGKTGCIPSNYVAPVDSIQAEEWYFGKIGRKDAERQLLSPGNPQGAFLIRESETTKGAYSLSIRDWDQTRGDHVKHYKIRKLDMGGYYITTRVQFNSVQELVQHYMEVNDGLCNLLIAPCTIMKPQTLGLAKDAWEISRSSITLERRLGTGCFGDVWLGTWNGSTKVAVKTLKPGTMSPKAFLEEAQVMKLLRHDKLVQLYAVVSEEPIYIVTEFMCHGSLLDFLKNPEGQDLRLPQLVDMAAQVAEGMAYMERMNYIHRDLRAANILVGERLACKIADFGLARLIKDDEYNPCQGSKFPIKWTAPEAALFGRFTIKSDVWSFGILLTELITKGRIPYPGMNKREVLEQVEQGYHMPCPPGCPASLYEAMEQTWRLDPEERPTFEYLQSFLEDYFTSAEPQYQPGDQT

PIK3CA/PIK3R1 = target: T4, PIK3CA/PIK3R1 (Homo sapiens, UniProt P42336); test: Off-chip Mobility Shift Assay, kinase inhibition; assay type: biochemical; conditions: at 10 nM; recombinant PIK3CA/PIK3R1
T4 construct: purchased Carna Biosciences, Inc

PDGFRβ = target: T5, PDGFRβ (Homo sapiens, UniProt P09619); test: Off-chip Mobility Shift Assay, kinase inhibition; assay type: biochemical; conditions: at 10 nM; recombinant PDGFRβ; read-out: inhibition
T5 construct: purchased Carna Biosciences, Inc
T5 sequence (P09619 33-1106): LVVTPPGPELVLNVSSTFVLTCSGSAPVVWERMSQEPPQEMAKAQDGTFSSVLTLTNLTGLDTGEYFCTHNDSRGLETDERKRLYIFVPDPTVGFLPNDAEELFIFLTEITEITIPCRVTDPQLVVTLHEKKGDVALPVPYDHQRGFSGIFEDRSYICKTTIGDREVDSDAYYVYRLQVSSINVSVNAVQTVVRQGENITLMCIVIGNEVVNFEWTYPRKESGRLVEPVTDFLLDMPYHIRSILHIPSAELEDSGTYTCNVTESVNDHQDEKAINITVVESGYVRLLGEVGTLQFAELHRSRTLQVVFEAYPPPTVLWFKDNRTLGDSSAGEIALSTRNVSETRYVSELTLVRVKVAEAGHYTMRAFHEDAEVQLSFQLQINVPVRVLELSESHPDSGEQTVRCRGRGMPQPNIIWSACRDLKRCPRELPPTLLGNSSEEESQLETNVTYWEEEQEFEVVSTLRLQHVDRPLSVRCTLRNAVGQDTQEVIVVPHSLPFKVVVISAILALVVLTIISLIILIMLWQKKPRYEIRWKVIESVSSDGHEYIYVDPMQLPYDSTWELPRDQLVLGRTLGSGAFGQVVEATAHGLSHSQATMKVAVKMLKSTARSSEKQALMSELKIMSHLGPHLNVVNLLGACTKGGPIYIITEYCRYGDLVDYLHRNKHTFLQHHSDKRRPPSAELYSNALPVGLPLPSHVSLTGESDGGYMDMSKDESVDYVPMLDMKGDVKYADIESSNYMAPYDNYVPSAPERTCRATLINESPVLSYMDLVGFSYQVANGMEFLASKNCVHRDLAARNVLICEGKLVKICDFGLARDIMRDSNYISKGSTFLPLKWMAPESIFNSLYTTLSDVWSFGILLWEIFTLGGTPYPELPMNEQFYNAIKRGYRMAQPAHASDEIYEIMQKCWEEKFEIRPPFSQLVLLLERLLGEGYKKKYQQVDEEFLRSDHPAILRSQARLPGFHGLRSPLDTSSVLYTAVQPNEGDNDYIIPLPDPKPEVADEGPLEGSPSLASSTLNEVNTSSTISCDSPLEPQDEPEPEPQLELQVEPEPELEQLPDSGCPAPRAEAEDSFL

LYNa = target: T6, LYNa (Homo sapiens, UniProt P07948); test: Off-chip Mobility Shift Assay, kinase inhibition; assay type: biochemical; conditions: recombinant LYNa; for inhibition at 0.001 µM: at 1 nM; for inhibition at 0.01 µM: at 10 nM, read-out: inhibition
T6 construct: purchased Carna Biosciences, Inc
T6 sequence (P07948 whole entry): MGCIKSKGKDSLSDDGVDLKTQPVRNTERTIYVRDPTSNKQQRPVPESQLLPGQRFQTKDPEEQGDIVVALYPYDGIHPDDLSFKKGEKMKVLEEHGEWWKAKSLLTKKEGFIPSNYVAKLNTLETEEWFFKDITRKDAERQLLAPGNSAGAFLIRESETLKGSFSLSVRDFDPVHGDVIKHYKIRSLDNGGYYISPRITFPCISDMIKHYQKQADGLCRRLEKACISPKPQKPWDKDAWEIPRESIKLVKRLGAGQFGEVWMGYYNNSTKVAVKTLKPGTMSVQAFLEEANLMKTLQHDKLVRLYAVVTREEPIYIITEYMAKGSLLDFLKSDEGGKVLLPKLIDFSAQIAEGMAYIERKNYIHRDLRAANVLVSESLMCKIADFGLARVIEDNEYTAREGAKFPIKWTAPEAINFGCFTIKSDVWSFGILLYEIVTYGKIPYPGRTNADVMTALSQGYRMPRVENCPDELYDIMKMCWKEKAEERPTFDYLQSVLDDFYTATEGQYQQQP

FRK = target: T7, FRK (Homo sapiens, UniProt P42685); test: Off-chip Mobility Shift Assay, kinase inhibition; assay type: biochemical; conditions: at 10 nM; recombinant FRK
T7 construct: purchased Carna Biosciences, Inc

FYN(isoform a) = target: T8, FYN(isoform a) (Homo sapiens, UniProt P06241); test: Off-chip Mobility Shift Assay, kinase inhibition; assay type: biochemical; conditions: at 10 nM; recombinant FYN(isoform a)
T8 construct: purchased Carna Biosciences, Inc
T8 sequence (P06241 whole entry, canonical isoform): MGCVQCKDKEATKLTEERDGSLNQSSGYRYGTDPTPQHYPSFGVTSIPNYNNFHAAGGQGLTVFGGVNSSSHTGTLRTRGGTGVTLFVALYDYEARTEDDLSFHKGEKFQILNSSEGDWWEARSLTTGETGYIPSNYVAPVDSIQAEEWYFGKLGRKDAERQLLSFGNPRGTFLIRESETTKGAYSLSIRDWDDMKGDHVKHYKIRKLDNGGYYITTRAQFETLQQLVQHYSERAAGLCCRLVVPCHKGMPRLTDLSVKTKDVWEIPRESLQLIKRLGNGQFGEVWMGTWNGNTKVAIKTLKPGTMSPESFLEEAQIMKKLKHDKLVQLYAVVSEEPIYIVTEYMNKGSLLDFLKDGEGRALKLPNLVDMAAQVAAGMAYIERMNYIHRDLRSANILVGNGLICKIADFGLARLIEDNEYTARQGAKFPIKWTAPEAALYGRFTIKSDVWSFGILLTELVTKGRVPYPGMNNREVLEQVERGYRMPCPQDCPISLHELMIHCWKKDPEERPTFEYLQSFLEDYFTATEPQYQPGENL

SU-DHL-4 = test: Cell inhibition assay (PrestoBlue, 48 h); assay type: cell-based; conditions: Homo sapiens, SU-DHL-4, 48 h, SU-DHL-4 diffuse large B-cell lymphoma cells, read-out: IC50, inhibition of growth
[1] = test system: battery of selected protein kinases; test: In vitro screen of a battery of selected protein kinases (summary statement); assay type: biochemical; conditions: BTK, BMX, ABL, ABL(E255K), SRC, ACK, ARG, BLK, DDR2, EPHA, FGR, FMS, FRK, FYN, HCK, LCK, LYN, PDGFRα, PDGFRβ, YES, PIK3CA/PIK3R1, among others
HCK = target: T9, HCK (Homo sapiens, UniProt P08631); test: Off-chip Mobility Shift Assay, kinase inhibition; assay type: biochemical; conditions: recombinant HCK; for inhibition at 0.001 µM: at 1 nM; for inhibition at 0.01 µM: at 10 nM, read-out: inhibition
T9 construct: purchased Carna Biosciences, Inc
T9 sequence (P08631 whole entry): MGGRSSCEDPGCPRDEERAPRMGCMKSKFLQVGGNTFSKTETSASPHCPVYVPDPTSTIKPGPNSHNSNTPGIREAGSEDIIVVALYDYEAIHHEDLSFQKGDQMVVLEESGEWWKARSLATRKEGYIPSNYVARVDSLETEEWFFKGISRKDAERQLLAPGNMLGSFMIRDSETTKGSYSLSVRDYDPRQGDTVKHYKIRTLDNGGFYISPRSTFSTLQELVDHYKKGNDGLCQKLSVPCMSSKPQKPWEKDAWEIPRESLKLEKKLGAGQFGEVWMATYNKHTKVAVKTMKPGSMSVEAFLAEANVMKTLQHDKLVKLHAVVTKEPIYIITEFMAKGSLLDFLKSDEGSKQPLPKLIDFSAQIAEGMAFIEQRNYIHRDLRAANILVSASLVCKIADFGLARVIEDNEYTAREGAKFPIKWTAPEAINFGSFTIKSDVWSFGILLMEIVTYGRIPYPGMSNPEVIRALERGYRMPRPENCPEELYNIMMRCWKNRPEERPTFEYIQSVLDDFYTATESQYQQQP

EPHA1 = target: T10, EPHA1 (Homo sapiens, UniProt P21709); test: Off-chip Mobility Shift Assay, kinase inhibition; assay type: biochemical; conditions: at 10 nM; recombinant EPHA1
T10 construct: purchased Carna Biosciences, Inc
T10 sequence (P21709 26-976): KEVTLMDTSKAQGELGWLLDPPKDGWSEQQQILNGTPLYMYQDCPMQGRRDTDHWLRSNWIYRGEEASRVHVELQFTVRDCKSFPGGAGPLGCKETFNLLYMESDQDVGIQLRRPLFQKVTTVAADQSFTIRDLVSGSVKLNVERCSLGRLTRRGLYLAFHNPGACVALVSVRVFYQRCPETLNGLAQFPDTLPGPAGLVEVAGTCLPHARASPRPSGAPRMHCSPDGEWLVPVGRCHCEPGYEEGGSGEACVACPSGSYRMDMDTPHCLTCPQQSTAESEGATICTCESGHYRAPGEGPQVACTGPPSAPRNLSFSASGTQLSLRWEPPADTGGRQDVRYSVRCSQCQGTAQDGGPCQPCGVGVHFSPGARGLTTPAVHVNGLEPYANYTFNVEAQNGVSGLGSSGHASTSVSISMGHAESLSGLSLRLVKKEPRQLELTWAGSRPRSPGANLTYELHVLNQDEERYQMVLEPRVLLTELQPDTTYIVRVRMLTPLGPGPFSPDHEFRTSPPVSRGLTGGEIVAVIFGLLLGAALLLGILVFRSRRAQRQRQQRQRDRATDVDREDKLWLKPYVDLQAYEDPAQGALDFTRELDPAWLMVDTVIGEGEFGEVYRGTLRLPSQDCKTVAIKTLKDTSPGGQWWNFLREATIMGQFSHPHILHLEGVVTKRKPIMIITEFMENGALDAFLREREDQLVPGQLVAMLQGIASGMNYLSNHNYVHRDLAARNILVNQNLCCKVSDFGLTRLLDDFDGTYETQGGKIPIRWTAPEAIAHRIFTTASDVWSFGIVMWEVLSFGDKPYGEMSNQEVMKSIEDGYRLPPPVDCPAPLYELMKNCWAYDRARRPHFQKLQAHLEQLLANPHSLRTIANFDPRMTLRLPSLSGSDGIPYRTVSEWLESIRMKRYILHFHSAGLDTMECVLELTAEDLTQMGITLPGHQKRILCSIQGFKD

ACK = target: T11, ACK (Homo sapiens, UniProt Q07912); test: Off-chip Mobility Shift Assay, kinase inhibition; assay type: biochemical; conditions: at 10 nM; recombinant ACK
T11 construct: purchased Carna Biosciences, Inc
T11 sequence (Q07912 whole entry): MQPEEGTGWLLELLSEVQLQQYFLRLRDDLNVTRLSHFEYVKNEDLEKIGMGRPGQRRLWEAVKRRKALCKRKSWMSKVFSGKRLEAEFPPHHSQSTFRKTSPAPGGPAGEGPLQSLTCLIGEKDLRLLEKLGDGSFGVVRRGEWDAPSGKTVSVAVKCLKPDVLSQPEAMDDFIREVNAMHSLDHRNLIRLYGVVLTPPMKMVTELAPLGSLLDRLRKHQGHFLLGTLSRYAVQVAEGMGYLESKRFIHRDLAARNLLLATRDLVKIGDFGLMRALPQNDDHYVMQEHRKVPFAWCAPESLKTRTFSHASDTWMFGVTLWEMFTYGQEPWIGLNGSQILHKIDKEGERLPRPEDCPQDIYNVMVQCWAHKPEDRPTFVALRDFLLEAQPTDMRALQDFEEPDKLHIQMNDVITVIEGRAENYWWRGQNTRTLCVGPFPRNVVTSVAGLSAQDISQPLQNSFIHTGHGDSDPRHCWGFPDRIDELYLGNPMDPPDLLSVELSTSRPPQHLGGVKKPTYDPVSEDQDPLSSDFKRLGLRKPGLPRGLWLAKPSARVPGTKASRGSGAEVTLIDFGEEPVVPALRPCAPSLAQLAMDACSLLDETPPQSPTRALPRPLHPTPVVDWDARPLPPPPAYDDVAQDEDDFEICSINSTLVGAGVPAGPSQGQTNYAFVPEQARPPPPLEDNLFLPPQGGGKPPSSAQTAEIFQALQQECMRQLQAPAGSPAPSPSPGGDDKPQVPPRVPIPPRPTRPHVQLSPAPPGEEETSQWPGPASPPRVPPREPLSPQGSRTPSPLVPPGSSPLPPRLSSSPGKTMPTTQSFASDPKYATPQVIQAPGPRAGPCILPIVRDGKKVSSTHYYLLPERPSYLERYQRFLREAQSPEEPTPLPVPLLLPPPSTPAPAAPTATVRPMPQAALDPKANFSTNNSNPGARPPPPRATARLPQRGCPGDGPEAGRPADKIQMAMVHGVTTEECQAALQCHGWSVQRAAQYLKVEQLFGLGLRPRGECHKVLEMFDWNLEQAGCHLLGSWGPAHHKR

BMX = target: T12, BMX (Homo sapiens, UniProt P51813); test: Off-chip Mobility Shift Assay, kinase inhibition; assay type: biochemical; conditions: recombinant BMX; for inhibition at 0.001 µM: at 1 nM; for inhibition at 0.01 µM: at 10 nM
T12 construct: purchased Carna Biosciences, Inc
T12 sequence (P51813 1-675): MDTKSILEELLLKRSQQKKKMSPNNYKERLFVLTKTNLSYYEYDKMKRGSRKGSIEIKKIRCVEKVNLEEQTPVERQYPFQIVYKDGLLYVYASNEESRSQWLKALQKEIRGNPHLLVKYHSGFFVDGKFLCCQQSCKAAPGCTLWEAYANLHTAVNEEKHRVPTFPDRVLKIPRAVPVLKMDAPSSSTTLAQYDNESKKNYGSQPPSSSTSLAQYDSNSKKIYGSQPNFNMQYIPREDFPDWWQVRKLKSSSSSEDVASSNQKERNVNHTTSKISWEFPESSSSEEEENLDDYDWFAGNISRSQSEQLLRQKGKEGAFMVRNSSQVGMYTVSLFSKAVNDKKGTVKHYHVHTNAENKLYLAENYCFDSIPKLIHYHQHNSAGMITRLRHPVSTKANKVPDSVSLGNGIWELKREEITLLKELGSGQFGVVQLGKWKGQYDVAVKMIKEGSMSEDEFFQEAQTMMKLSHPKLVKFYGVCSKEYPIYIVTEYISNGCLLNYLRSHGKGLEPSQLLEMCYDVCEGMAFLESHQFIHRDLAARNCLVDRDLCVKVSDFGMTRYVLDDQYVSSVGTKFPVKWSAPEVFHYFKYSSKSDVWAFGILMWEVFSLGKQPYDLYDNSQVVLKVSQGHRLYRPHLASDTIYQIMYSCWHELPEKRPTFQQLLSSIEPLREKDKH

BTK = target: T13, BTK (Homo sapiens, UniProt Q06187); test: Off-chip Mobility Shift Assay, kinase inhibition; assay type: biochemical; conditions: recombinant BTK; for inhibition at 0.001 µM: at 1 nM; for inhibition at 0.01 µM: at 10 nM
T13 construct: purchased Carna Biosciences, Inc
T13 sequence (Q06187 whole entry): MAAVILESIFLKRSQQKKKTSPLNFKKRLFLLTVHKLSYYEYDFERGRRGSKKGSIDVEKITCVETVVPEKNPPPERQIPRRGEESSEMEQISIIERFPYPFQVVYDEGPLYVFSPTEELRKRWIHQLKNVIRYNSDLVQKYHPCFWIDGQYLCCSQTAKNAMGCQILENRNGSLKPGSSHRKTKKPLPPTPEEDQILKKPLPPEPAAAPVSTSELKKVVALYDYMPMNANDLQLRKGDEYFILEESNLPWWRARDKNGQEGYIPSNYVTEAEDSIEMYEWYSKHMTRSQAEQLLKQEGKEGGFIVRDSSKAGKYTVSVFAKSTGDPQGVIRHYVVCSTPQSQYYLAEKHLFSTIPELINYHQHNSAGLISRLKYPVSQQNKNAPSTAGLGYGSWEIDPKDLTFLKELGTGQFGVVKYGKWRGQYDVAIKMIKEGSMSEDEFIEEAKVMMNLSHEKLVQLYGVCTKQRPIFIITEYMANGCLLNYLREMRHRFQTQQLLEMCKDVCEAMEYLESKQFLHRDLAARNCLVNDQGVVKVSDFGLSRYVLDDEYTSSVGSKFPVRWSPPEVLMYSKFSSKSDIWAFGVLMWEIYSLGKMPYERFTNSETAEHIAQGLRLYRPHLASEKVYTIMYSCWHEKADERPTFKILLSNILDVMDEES

Row | inhibition at 0.01 µM (BLK) [%] | inhibition at 0.01 µM (PDGFRα) [%] | inhibition at 0.01 µM (FGR) [%] | inhibition at 0.01 µM (PIK3CA/PIK3R1) [%] | inhibition at 0.01 µM (PDGFRβ) [%] | inhibition at 0.001 µM (LYNa) [%] | inhibition at 0.01 µM (LYNa) [%] | inhibition at 0.01 µM (FRK) [%] | inhibition at 0.01 µM (FYN(isoform a)) [%] | IC50 (SU-DHL-4) [nM] | inhibition at 0.001 µM (HCK) [%] | inhibition at 0.01 µM (HCK) [%] | inhibition at 0.01 µM (EPHA1) [%] | inhibition at 0.01 µM (ACK) [%] | inhibition at 0.001 µM (BMX) [%] | inhibition at 0.01 µM (BMX) [%] | inhibition at 0.001 µM (BTK) [%] | inhibition at 0.01 µM (BTK) [%] | Structure (SMILES) | IC50 (Mino) [nM] | activity to inhibit kinases [1]
1 | > 50 | > 50 | > 50 | > 50 | > 50 | > 50 | > 50 | > 50 | > 50 | < 20 | > 50 | > 50 | > 50 | > 50 | > 50 | > 50 | > 50 | > 50 | Cc1nc(Nc2ncc(C(=O)Nc3c(C)cccc3Cl)s2)cc(N2CC[C@@H](O)C2)n1 [Compound XI, N-(2-chloro-6-methylphenyl)-2-[[2-methyl-6-((R)-3-hydroxypyrrolidin-1-yl)pyrimidin-4-yl]amino]thiazole-5-carboxamide] | < 50 | potent activity
2 | > 50 | > 50 | > 50 | > 50 | > 50 | > 50 | > 50 | > 50 | > 50 | < 20 | > 50 | > 50 | > 50 | > 50 | > 50 | > 50 | > 50 | > 50 | Cc1nc(Nc2ncc(C(=O)Nc3c(C)cccc3Cl)s2)cc(N2CC[C@H](N)C2)n1 [Compound XII, N-(2-chloro-6-methylphenyl)-2-[[2-methyl-6-((S)-3-aminopyrrolidin-1-yl)pyrimidin-4-yl]amino]thiazole-5-carboxamide] | < 50 | potent activity

From patent publication US10479786B2, “Protein kinase inhibitors” (Princeton Drug Discovery Inc, priority 2016, dated 2019)
